{"source": "PubChem BioAssay AID720512", "about": "(Broad Institute, 2013)", "note": "Active and inactive are the calls of the source. How the calls were made is not given here."}
{"target": "Toxin B (TcdB) glycohydrolase, Clostridioides difficile 630", "assay": "TcdB glycohydrolase inhibitors, dose response, biochemical, cherry-pick, plate reader (AID 720512)", "conditions": "recombinant TcdB glycohydrolase activity"}
{"smiles": "CCc1cc(-c2n[nH]c(C)c2-c2nc(C)cs2)c(O)cc1OC", "AC50": "> 39 µM (inactive)"}
{"smiles": "COC(=O)/C=C/C(=O)Nc1ccc(O)c(Cl)c1", "AC50": "20.9 µM"}
{"smiles": "N=C(N)c1ccc(N=Nc2c(O)ccc3c2[nH]c2ccccc23)cc1", "AC50": "> 39 µM (inactive)"}
{"smiles": "Oc1ccc(CCc2ccccn2)cc1", "AC50": "> 39 µM (inactive)"}
{"target": "Toxin B (TcdB) glycohydrolase, Clostridioides difficile 630", "assay": "TcdB glycohydrolase inhibitors, dose response, biochemical, cherry-pick, plate reader (AID 720512)", "conditions": "recombinant TcdB glycohydrolase activity, at 19.5 µM (top of the series)"}
{"smiles": "Cc1noc(C)c1NC(=O)N(C)C[C@@H]1Oc2ccc(NC(=O)C3CCCCC3)cc2C(=O)N([C@@H](C)CO)C[C@H]1C", "activity change, negative = inhibition": "inactive"}
{"smiles": "CCOC(=O)[C@@H]1[C@H]2COc3ccc(Br)cc3[C@@H]2N2C(=O)N(c3cccc(F)c3)C(=O)[C@]12C", "activity change, negative = inhibition": "inactive"}
{"smiles": "CN(C)c1ccc(C(=S)N2CCN(C(=S)Nc3ccc(Cl)cc3)CC2)cc1", "activity change, negative = inhibition": "inactive"}
{"smiles": "O=c1[nH]c(CN2CCOCC2)nc2cc(Cl)ccc12", "activity change, negative = inhibition": "inactive"}
{"smiles": "O=C1CSC(=Nc2ccc(O)cc2)N1", "activity change, negative = inhibition": "inactive"}
{"smiles": "Cc1ccc(NNC(=O)C2CCC2)cc1C", "activity change, negative = inhibition": "inactive"}
{"smiles": "CC(C)CN1CCN(CC#Cc2ccccc2)CC1CCO", "note": "(stereo unspecified)", "activity change, negative = inhibition": "inactive"}
{"smiles": "CCOC(=O)Nc1ccc(OC(=O)Oc2ccc(NC(=O)OCC)cc2)cc1", "activity change, negative = inhibition": "inactive"}
{"smiles": "CCCn1c(N)c(C(=O)COC(=O)c2cccc(S(=O)(=O)N3CCOCC3)c2)c(=O)[nH]c1=O", "activity change, negative = inhibition": "inactive"}
{"smiles": "CCOc1ccc(S(=O)(=O)NCCC(=O)NCc2ccccn2)cc1", "activity change, negative = inhibition": "inactive"}
{"smiles": "COCC#Cc1ccc2c(c1)O[C@H](CN(C)C(=O)CC1CC1)[C@@H](C)CN([C@H](C)CO)S2(=O)=O", "activity change, negative = inhibition": "inactive"}
{"smiles": "CC(C)NC(=O)N1CC[C@@H]2[C@H]1c1cc(-c3ccc(F)cc3)ccc1N(C)[C@H]2CO", "activity change, negative = inhibition": "inactive"}
{"smiles": "Cc1ccc(C2=NS(=O)(=O)N(C)C(C(=O)NCc3ccccc3)=C2)cc1", "activity change, negative = inhibition": "inactive"}
{"smiles": "COc1ccc(NC(=O)c2cc(C)nc3ccccc23)c(OC)c1", "activity change, negative = inhibition": "inactive"}
{"smiles": "CCc1[nH]c(=O)c(C#N)c2c1CCCC2", "activity change, negative = inhibition": "inactive"}
{"smiles": "Oc1ccc(Cc2ccc(Cl)cc2)c(O)c1", "activity change, negative = inhibition": "inactive"}
{"smiles": "CCOC(=O)c1ccc2ncc(-c3ccccc3)nc2c1", "activity change, negative = inhibition": "inactive"}
{"smiles": "Cc1ccc(S(=O)(=O)Oc2ccccc2/C=C2\\SC(=O)NC2=O)cc1", "activity change, negative = inhibition": "inactive"}
{"smiles": "Cc1ccc(/C=C/c2onc(C)c2S(=O)(=O)N2CCC(C(=O)N3CCN(C)CC3)CC2)cc1", "activity change, negative = inhibition": "inactive"}
{"smiles": "O=C(c1ccc([N+](=O)[O-])cc1)N1CCN(c2cccc3[nH]ccc23)CC1", "activity change, negative = inhibition": "inactive"}
{"smiles": "O=C(OCn1nnc2ccccc2c1=O)c1cc2ccccc2o1", "activity change, negative = inhibition": "inactive"}
{"smiles": "Cc1cnc(C(=O)OCC(=O)N2C(C)CCCC2C)cn1", "note": "(stereo unspecified)", "activity change, negative = inhibition": "inactive"}
{"smiles": "Cc1cc(C(=O)Nc2ncc(C)s2)c2ccccc2n1", "activity change, negative = inhibition": "inactive"}
{"smiles": "Cc1cc(C(=O)CSc2nnnn2-c2ccccc2)c(C)n1-c1ccc2c(c1)OCO2", "activity change, negative = inhibition": "inactive"}
{"smiles": "COc1ccc(Br)cc1C(=O)Nc1ccc(O)cc1", "activity change, negative = inhibition": "inactive"}
{"smiles": "Cc1cc2c(cc1S(=O)(=O)N(C)c1ccccc1)NC(=O)CO2", "activity change, negative = inhibition": "inactive"}
{"smiles": "Cc1ccc(S(=O)(=O)N2CCC(C(=O)OCC(=O)NCCc3ccccc3)CC2)cc1C", "activity change, negative = inhibition": "inactive"}
{"smiles": "CCOC(=O)c1ccc(NC(=O)Oc2cc(C)c(Cl)cc2C(C)C)cc1", "activity change, negative = inhibition": "inactive"}
{"smiles": "CCOC(=O)c1ccc(N=c2sc(C(=O)OC)cc(=O)n2CCCN2CCOCC2)cc1", "activity change, negative = inhibition": "inactive"}
{"smiles": "CC(=O)Nc1ccc(NC(=O)[C@@H]2CCCN2S(=O)(=O)c2ccc3c(c2)OCCO3)cc1", "activity change, negative = inhibition": "inactive"}
{"smiles": "COc1ccc(NC(=O)Cn2cnc3sc(C)c(S(=O)(=O)N4CCOCC4)c3c2=O)c(OC)c1", "activity change, negative = inhibition": "inactive"}
{"smiles": "COC(=O)C(Cc1ccccc1)NC(=O)CSc1nc(C)cc(=O)[nH]1", "note": "(stereo unspecified)", "activity change, negative = inhibition": "inactive"}
